Measured values published in ChEMBL document CHEMBL3885881, “DrugMatrix”.

Species: Rattus norvegicus
Assay: DrugMatrix - Regimen: Daily Repeat
Format: toxicity, organism-based, Sprague-Dawley
Design: regimen Daily Repeat, gender Male, age 6-8 weeks
Details: in vivo, po, route oral GAVAGE, vehicle 100 % WATER; for ABSOLUTE BASOPHIL / ABSOLUTE EOSINOPHIL / ABSOLUTE LYMPHOCYTE / ABSOLUTE MONOCYTE / ABSOLUTE SEGMENTED NEUTROPHIL / BASOPHIL / EOSINOPHIL / ERYTHROCYTE COUNT / HEMATOCRIT / HEMOGLOBIN / LEUKOCYTE COUNT / LYMPHOCYTE / MEAN CORPUSCULAR HEMOGLOBIN / MEAN CORPUSCULAR HEMOGLOBIN CONCENTRATION / MEAN CORPUSCULAR VOLUME / MONOCYTE / NEUTROPHIL / NUCLEATED RED BLOOD CELLS / PLATELET COUNT: tissue Blood; for ALANINE AMINOTRANSFERASE / ALBUMIN / ALKALINE PHOSPHATASE / ASPARTATE AMINOTRANSFERASE / BLOOD UREA NITROGEN / CARBON DIOXIDE / CHLORIDE / CHOLESTEROL / CREATINE PHOSPHOKINASE / CREATININE / GLUCOSE / LACTATE DEHYDROGENASE / LIPASE / PHOSPHORUS / POTASSIUM / SODIUM / TOTAL BILIRUBIN / TOTAL PROTEIN / URIC ACID: tissue Plasma
[1] = 0 mg/kg, 72 h, dose level Control, time 3 day
[2] = 0 mg/kg, 120 h, dose level Control, time 5 day
[3] = 20 mg/kg, 72 h, dose level Low, time 3 day

Compound: CN(C)CCC=C1c2ccccc2CCc2ccccc21 [AMITRIPTYLINE]
- ABSOLUTE BASOPHIL [1]: 0 CELLS/uL
- ABSOLUTE EOSINOPHIL [1]: 58.83 CELLS/uL
- ABSOLUTE LYMPHOCYTE [1]: 11823.5 CELLS/uL
- ABSOLUTE MONOCYTE [1]: 169 CELLS/uL
- ABSOLUTE SEGMENTED NEUTROPHIL [1]: 815.33 CELLS/uL
- BASOPHIL [1]: 0%
- EOSINOPHIL [1]: 0.5%
- ERYTHROCYTE COUNT [1]: 5.52 x10E6/uL
- HEMATOCRIT [1]: 35.77%
- HEMOGLOBIN [1]: 14.28 G/DL
- LEUKOCYTE COUNT [1]: 12.87 x10E3/uL
- LYMPHOCYTE [1]: 91.67%
- MEAN CORPUSCULAR HEMOGLOBIN [1]: 25.92 pg
- MEAN CORPUSCULAR HEMOGLOBIN CONCENTRATION [1]: 39.95 G/DL
- MEAN CORPUSCULAR VOLUME [1]: 64.85 fL
- MONOCYTE [1]: 1.33%
- NEUTROPHIL [1]: 6.5%
- NUCLEATED RED BLOOD CELLS [1]: 0 /100WBC
- PLATELET COUNT [1]: 1246.17 x10E3/uL
- ALANINE AMINOTRANSFERASE [1]: 66 u/L
- ALBUMIN [1]: 4.25 G/DL
- ALKALINE PHOSPHATASE [1]: 416 u/L
- ASPARTATE AMINOTRANSFERASE [1]: 106.17 u/L
- BLOOD UREA NITROGEN [1]: 12.67 mg/dL
- CARBON DIOXIDE [1]: 31.83 mmol/L
- CHLORIDE [1]: 102.5 MEQ/L
- CHOLESTEROL [1]: 69 mg/dL
- CREATINE PHOSPHOKINASE [1]: 601.83 u/L
- CREATININE [1]: 0.18 mg/dL
- GLUCOSE [1]: 154.5 mg/dL
- LACTATE DEHYDROGENASE [1]: 301.83 u/L
- LIPASE [1]: 11.17 u/L
- PHOSPHORUS [1]: 12.08 mg/dL
- POTASSIUM [1]: 6.12 MEQ/L
- SODIUM [1]: 145.2 MEQ/L
- TOTAL BILIRUBIN [1]: 0.17 mg/dL
- TOTAL PROTEIN [1]: 6.1 G/DL
- URIC ACID [1]: 1.57 mg/dL
- ABSOLUTE BASOPHIL [2]: 0 CELLS/uL
- ABSOLUTE EOSINOPHIL [2]: 19.33 CELLS/uL
- ABSOLUTE LYMPHOCYTE [2]: 12577.83 CELLS/uL
- ABSOLUTE MONOCYTE [2]: 106.33 CELLS/uL
- ABSOLUTE SEGMENTED NEUTROPHIL [2]: 896.5 CELLS/uL
- BASOPHIL [2]: 0%
- EOSINOPHIL [2]: 0.17%
- ERYTHROCYTE COUNT [2]: 5.84 x10E6/uL
- HEMATOCRIT [2]: 36.88%
- HEMOGLOBIN [2]: 14.48 G/DL
- LEUKOCYTE COUNT [2]: 13.6 x10E3/uL
- LYMPHOCYTE [2]: 92.17%
- MEAN CORPUSCULAR HEMOGLOBIN [2]: 24.85 pg
- MEAN CORPUSCULAR HEMOGLOBIN CONCENTRATION [2]: 39.3 G/DL
- MEAN CORPUSCULAR VOLUME [2]: 63.23 fL
- MONOCYTE [2]: 0.83%
- NEUTROPHIL [2]: 6.83%
- NUCLEATED RED BLOOD CELLS [2]: 0 /100WBC
- PLATELET COUNT [2]: 1223.5 x10E3/uL
- ALANINE AMINOTRANSFERASE [2]: 55.33 u/L
- ALBUMIN [2]: 4.08 G/DL
- ALKALINE PHOSPHATASE [2]: 355.5 u/L
- ASPARTATE AMINOTRANSFERASE [2]: 87.67 u/L
- BLOOD UREA NITROGEN [2]: 15.33 mg/dL
- CARBON DIOXIDE [2]: 33.83 mmol/L
- CHLORIDE [2]: 99.67 MEQ/L
- CHOLESTEROL [2]: 72.17 mg/dL
- CREATINE PHOSPHOKINASE [2]: 268.33 u/L
- CREATININE [2]: 0.15 mg/dL
- GLUCOSE [2]: 152.5 mg/dL
- LACTATE DEHYDROGENASE [2]: 212.67 u/L
- LIPASE [2]: 10.83 u/L
- PHOSPHORUS [2]: 11.65 mg/dL
- POTASSIUM [2]: 6.73 MEQ/L
- SODIUM [2]: 142.43 MEQ/L
- TOTAL BILIRUBIN [2]: 0.23 mg/dL
- TOTAL PROTEIN [2]: 6.07 G/DL
- URIC ACID [2]: 1.7 mg/dL
- ABSOLUTE BASOPHIL [3]: 0 CELLS/uL
- ABSOLUTE EOSINOPHIL [3]: 43.67 CELLS/uL
- ABSOLUTE LYMPHOCYTE [3]: 12245.67 CELLS/uL
- ABSOLUTE MONOCYTE [3]: 111.33 CELLS/uL
- ABSOLUTE SEGMENTED NEUTROPHIL [3]: 1432.67 CELLS/uL
- BASOPHIL [3]: 0%
- EOSINOPHIL [3]: 0.33%
- ERYTHROCYTE COUNT [3]: 5.6 x10E6/uL
- HEMATOCRIT [3]: 36.3%
- HEMOGLOBIN [3]: 14.5 G/DL
- LEUKOCYTE COUNT [3]: 13.83 x10E3/uL
- LYMPHOCYTE [3]: 88.33%
- MEAN CORPUSCULAR HEMOGLOBIN [3]: 25.93 pg
- MEAN CORPUSCULAR HEMOGLOBIN CONCENTRATION [3]: 39.97 G/DL
- MEAN CORPUSCULAR VOLUME [3]: 64.87 fL
- MONOCYTE [3]: 0.67%
- NEUTROPHIL [3]: 10.67%
- NUCLEATED RED BLOOD CELLS [3]: 0 /100WBC
- PLATELET COUNT [3]: 1222 x10E3/uL
- ALANINE AMINOTRANSFERASE [3]: 53 u/L
- ALBUMIN [3]: 4.33 G/DL
- ALKALINE PHOSPHATASE [3]: 377.33 u/L
- ASPARTATE AMINOTRANSFERASE [3]: 92 u/L
- BLOOD UREA NITROGEN [3]: 14.67 mg/dL
- CARBON DIOXIDE [3]: 31.33 mmol/L
- CHLORIDE [3]: 103 MEQ/L
- CHOLESTEROL [3]: 67.33 mg/dL
- CREATINE PHOSPHOKINASE [3]: 466 u/L
- CREATININE [3]: 0.22 mg/dL
- GLUCOSE [3]: 137.33 mg/dL
- LACTATE DEHYDROGENASE [3]: 318.67 u/L
- LIPASE [3]: 12.67 u/L
- PHOSPHORUS [3]: 11.77 mg/dL
- POTASSIUM [3]: 6.47 MEQ/L
- SODIUM [3]: 145.83 MEQ/L
- TOTAL BILIRUBIN [3]: 0.2 mg/dL
- TOTAL PROTEIN [3]: 6.03 G/DL
- URIC ACID [3]: 1.5 mg/dL
